Measured values as given in patent publication US20240209028A1, “CNP COMPOUNDS” (priority 2022, published 2024).
≈ marks a conversion by molar mass, not a printed value. Starred links: 1 amine or outer side, 2 acyl side, 3 side chain; linkers in the order of their positions; H or OH if unused. Positions of bridges follow the written chain, without caps; N, C: chain ends. Residues, ends and D or L forms follow the SMILES beside them. *: point of attachment. C18 diacid = O=C(O)CCCCCCCCCCCCCCCCC(=O)*; γGlu = O=C(O)[C@H](CCC(=O)[*:2])N[*:1]; AEEA = NCCOCCOCC(=O)O

assay: Solubility of CNP compounds at pH 4.0 and pH 6.5; type: physicochemical; details: 8 mM sodium phosphate, 23 mg/mL glycerol, pH 6.5, room temperature; read-out: Solubility at pH 6.5
Method: In order to assess the suitability of CNP compounds for a soluble liquid formulation, the solubility of CNP compounds in pharmaceutically relevant buffers were measured. Solubility at two different pH-levels (pH 4.0 and pH 6.5) was examined as pH is expected to affect solubility.
Preparation of pH 4.0 samples: The pH 4.0 samples of the CNP compounds were prepared by mixing freeze dried peptide with a pH 4.0 5 mM sodium acetate, 250 mM glycerol buffer at room temperature to a nominal concentration of at least 4000-5000 nmol/mL. The pH of the samples was measured and adjusted to pH 4.0 and the samples were allowed to equilibrate at room temperature until next day if not fully dissolved.
Preparation of pH 6.5 samples: The pH 6.5 samples of the CNP compounds were prepared by dissolving the freeze dried peptide in water. While stirring, a part of the peptide solution was transferred to a buffer consisting of 41 mM sodium phosphate and 118 mg/mL glycerol, pH 7.5-8.0, followed by addition of diluted sodium hydroxide followed by another part of the peptide solution and further addition of diluted sodium hydroxide. This procedure was repeated until all of the peptide solution had been added where a nominal concentration of at least 4000-5000 nmol/mL had been reached and the buffer composition was 8 mM sodium phosphate, 23 mg/mL glycerol. The pH of the samples were measured and adjusted to pH 6.5 and the samples were allowed to equilibrate at room temperature until next day if not fully dissolved.
Procedure: Samples at pH 4.0 were prepared as described above and the compound concentration in the supernatant was determined using CAD (Method F, CAD02).
Samples at pH 6.5 were prepared as described above and peptide concentration in the supernatant was determined by CAD (Method F, CAD02).

Going from CC[C@H](C)[C@@H]1NC(=O)[C@H](CCCNC(=N)N)NC(=O)[C@H](CC(=O)O)NC(=O)[C@H](CC(C)C)NC(=O)[C@@H]2CCCN2C(=O)[C@H](CC(C)C)NC(=O)CNC(=O)[C@H](Cc2ccccc2)NC(=O)[C@@H](NC(=O)CNC(=O)[C@H](CCC(N)=O)NC(=O)[C@H](CO)NC(=O)[C@H](CC(C)C)NC(=O)CNC(=O)[C@H](CCCCN)NC(=O)[C@H](CCCCN)NC(=O)[C@H](CCC(N)=O)NC(=O)[C@H](C)NC(=O)CNC(=O)[C@H](CCCCN)NC(=O)[C@H](Cc2ccc(O)cc2)NC(=O)[C@H](CCCCN)NC(=O)[C@H](CCCNC(=N)N)NC(=O)[C@H](C)NC(=O)[C@H](CCC(N)=O)NC(=O)[C@@H]2CCCN2C(=O)[C@H](Cc2c[nH]cn2)NC(=O)[C@H](CCC(=O)O)NC(=O)[C@H](CCC(N)=O)NC(=O)COCCOCCNC(=O)COCCOCCNC(=O)COCCOCCNC(=O)COCCOCCNC(=O)CC[C@H](NC(=O)CC[C@H](NC(=O)CC[C@H](NC(=O)CC[C@H](NC(=O)CC[C@H](NC(=O)CCCCCCCCCCCCCCCCC(=O)O)C(=O)O)C(=O)O)C(=O)O)C(=O)O)C(=O)O)CSSC[C@@H](C(=O)O)NC(=O)CNC(=O)[C@H](CC(C)C)NC(=O)CNC(=O)[C@H](CO)NC(=O)[C@H](CC(C)C)NC(=O)[C@H](CO)NC(=O)CNC1=O [compound 1406] ({C18 diacid-γGlu-γGlu-γGlu-γGlu-γGlu-AEEA-AEEA-AEEA-AEEA}-QEHPQARKYKGAQKKGLSQGCFGLPLDRIGSLSGLGC-OH; disulfide 21-37) to CC[C@H](C)[C@@H]1NC(=O)[C@H](CCCNC(=N)N)NC(=O)[C@H](CC(=O)O)NC(=O)[C@H](CC(C)C)NC(=O)[C@@H]2CCCN2C(=O)[C@H](CC(C)C)NC(=O)CNC(=O)[C@H](Cc2ccccc2)NC(=O)[C@@H](NC(=O)CNC(=O)[C@H](CCCCN)NC(=O)[C@H](CO)NC(=O)[C@@H](NC(=O)CNC(=O)[C@@H](NC(=O)[C@H](Cc2c[nH]cn2)NC(=O)[C@H](CCC(N)=O)NC(=O)[C@H](C)NC(=O)CNC(=O)[C@H](Cc2c[nH]cn2)NC(=O)[C@H](Cc2ccc(O)cc2)NC(=O)[C@H](CCCCN)NC(=O)[C@H](CCCNC(=N)N)NC(=O)[C@H](C)NC(=O)COCCOCCNC(=O)COCCOCCNC(=O)CC[C@H](NC(=O)CC[C@H](NC(=O)CC[C@H](NC(=O)CCCCCCCCCCCCCCCCC(=O)O)C(=O)O)C(=O)O)C(=O)O)[C@@H](C)O)C(C)C)CSSC[C@@H](C(=O)O)NC(=O)CNC(=O)[C@H](CC(C)C)NC(=O)CNC(=O)[C@H](CO)NC(=O)[C@H](CC(C)C)NC(=O)[C@H](CO)NC(=O)CNC1=O [compound 1420] ({C18 diacid-γGlu-γGlu-γGlu-AEEA-AEEA}-ARKYHGAQHTGVSKGCFGLPLDRIGSLSGLGC-OH; disulfide 16-32), the solubility falls from 5670 µM (≈ 30900 µg/mL) to 1410 µM (≈ 6000 µg/mL) (4-fold).

For CC[C@H](C)[C@@H]1NC(=O)[C@H](CCCNC(=N)N)NC(=O)[C@H](CC(=O)O)NC(=O)[C@H](CC(C)C)NC(=O)[C@@H]2CCCN2C(=O)[C@H](CC(C)C)NC(=O)CNC(=O)[C@H](Cc2ccccc2)NC(=O)[C@@H](NC(=O)CNC(=O)[C@H](CCCCN)NC(=O)[C@H](CO)NC(=O)CNC(=O)CNC(=O)[C@H](CCCCN)NC(=O)[C@H](CCCCN)NC(=O)[C@H](CCC(N)=O)NC(=O)[C@H](C)NC(=O)CNC(=O)[C@H](CCC(=O)O)NC(=O)[C@H](Cc2ccc(O)cc2)NC(=O)COCCOCCNC(=O)COCCOCCNC(=O)CC[C@H](NC(=O)CCCCCCCCCCCCCCCCC(=O)O)C(=O)O)CSSC[C@@H](C(=O)O)NC(=O)CNC(=O)[C@H](CC(C)C)NC(=O)CNC(=O)[C@H](CO)NC(=O)[C@H](CC(C)C)NC(=O)[C@H](CO)NC(=O)CNC1=O [compound 1377] ({C18 diacid-γGlu-AEEA-AEEA}-YEGAQKKGGSKGCFGLPLDRIGSLSGLGC-OH; disulfide 13-29), the solubility was 443 µM (≈ 1600 µg/mL).

assay: Thioflavin T (ThT) assay: lagtime and peptide recovery; type: physicochemical; details: ThT assay, pH 6.5, 37° C.; assay terminated after 45 hours
Excerpt: The ThT assay was used to evaluate physical stability of the CNP compounds and their suitability for liquid formulation. Low physical stability of peptides may lead to amyloid fibril formation, which is observed as well-ordered, thread-like macromolecular structures in the sample eventually resulting in gel formation. This has traditionally been tested by visual inspection of the sample. However, that kind of measurement is very subjective and depending on the observer. Therefore, the application of a small molecule indicator probe is much more advantageous. Thioflavin T (ThT) is such a probe and has a distinct fluorescence signature when binding to fibrils [Naiki et al. (1989) Anal. Biochem. 177, 244-249; LeVine (1999) Methods. Enzymol. […], 274-284].
Procedure: Thioflavin T was added to the supernatant samples from Example 5 (pH 4.0 and 6.5) using an aqueous ThT stock solution to a final concentration of about 1 μM in the samples. Sample aliquots of 150 μL were placed in a 96 well microtiter plate (Packard OptiPlate™-96, white polystyrene). Usually, two to three replicas of each sample were applied to the plate. The plate was sealed and placed in a fluorescence plate reader (Fluoroskan Ascent FL) and incubated at 37° C. with orbital shaking (960 rpm; 1 mm amplitude). Fluorescence measurements were performed every 20 minutes using excitation through a 444 nm filter and measurement of emission through a 485 nm filter. Between each measurement, the plate was shaken and heated as described above and the assay was terminated after 45 hours. Fluorescence measurements for each microtiter plate well were plotted against time and the lag-time (time until an increase in ThT fluorescence was observed) was estimated.
To assess loss of dissolved peptide following 45h incubation, peptide recovery was measured as the ratio between total peak area after incubation vs. before incubation using the RP-UPLC method described below.
Measurement of LagTime and Peptide recovery % using RP-UPLC: RP-UPLC was conducted using an Acquity UPLC BEH C18 1.7 μm (2.1×30 mm) Waters column (Eluent A: 0.1% v/v % TFA in water; Eluent B: 0.1% v/v TFA in acetonitrile/water 4:1) with gradient elution (0 min: 95% A; 2 min: 20% A; 2.3 min: 20% A; 2.4 min: 95% A; 9 min: 95% A) in a flow rate of 0.9 mL/min and a column temperature of 30° C. UV-detection at 215 nm was used to assess the total peptide area.
Samples at pH 4.0 were prepared as described in Example 5 and subjected to the ThT assay as described above.
Samples at pH 6.5 were prepared as described in Example 5 and subjected to the ThT assay as described above.

For CC[C@H](C)[C@@H]1NC(=O)[C@H](CCCNC(=N)N)NC(=O)[C@H](CC(=O)O)NC(=O)[C@H](CC(C)C)NC(=O)[C@@H]2CCCN2C(=O)[C@H](CC(C)C)NC(=O)CNC(=O)[C@H](Cc2ccccc2)NC(=O)[C@@H](NC(=O)CNC(=O)[C@H](CCC(N)=O)NC(=O)[C@H](CO)NC(=O)[C@H](CC(C)C)NC(=O)CNC(=O)[C@H](CCCCN)NC(=O)[C@H](CCCCN)NC(=O)[C@H](CCC(N)=O)NC(=O)[C@H](C)NC(=O)CNC(=O)[C@H](CCCCN)NC(=O)[C@H](Cc2ccc(O)cc2)NC(=O)[C@H](CCCCN)NC(=O)[C@H](CCCNC(=N)N)NC(=O)[C@H](C)NC(=O)[C@H](CCC(N)=O)NC(=O)[C@@H]2CCCN2C(=O)[C@H](Cc2c[nH]cn2)NC(=O)[C@H](CCC(=O)O)NC(=O)[C@H](CCC(N)=O)NC(=O)COCCOCCNC(=O)COCCOCCNC(=O)COCCOCCNC(=O)COCCOCCNC(=O)CC[C@H](NC(=O)CC[C@H](NC(=O)CC[C@H](NC(=O)CC[C@H](NC(=O)CC[C@H](NC(=O)CCCCCCCCCCCCCCCCC(=O)O)C(=O)O)C(=O)O)C(=O)O)C(=O)O)C(=O)O)CSSC[C@@H](C(=O)O)NC(=O)CNC(=O)[C@H](CC(C)C)NC(=O)CNC(=O)[C@H](CO)NC(=O)[C@H](CC(C)C)NC(=O)[C@H](CO)NC(=O)CNC1=O [compound 1406] ({C18 diacid-γGlu-γGlu-γGlu-γGlu-γGlu-AEEA-AEEA-AEEA-AEEA}-QEHPQARKYKGAQKKGLSQGCFGLPLDRIGSLSGLGC-OH; disulfide 21-37), the “LagTime (h) at pH 6.5” value was 45 h.
